This is an account of results in article PMC9783868, “Indoline-5-Sulfonamides: A Role of the Core in Inhibition of Cancer-Related Carbonic Anhydrases, Antiproliferative Activity and Circumventing of Multidrug Resistance” (Pharmaceuticals, 2022).

For one data set, the system named is GLUT1. As to the kind of experiment: Immunoblotting of hypoxia-induced protein expression in A431 cells. It is filed as cell-based, human. The following applies: hypoxia 24 h. The protocol:
(§1) We wondered whether compound 4f affected CA IX expression or whether its activity was limited to inhibiting the enzyme activity reported above (Table 1). To induce CA IX expression, cells were placed in hypoxia for 24 h, and then protein expression was analyzed by immunoblotting. Because the data on the expression of hypoxia-related proteins in the literature are highly inconsistent, we introduced additional controls. Antibodies to hypoxia-regulated and “non-hypoxic” proteins were used. The expression of kinase Akt, which is not regulated directly by hypoxia/HIF-1α, was not altered under hypoxia conditions (Figure 5F). […] Thus, lead compound 4f not only blocks the enzyme activity of CA IX, but also causes partial inhibition of hypoxia-induced CA IX expression in skin cancer cells.
(§2) A431 cells were seeded on 100 mm dishes (Corning, Corning, NY, USA), and after 24 h growth, the compound 4f was added to a fresh medium. To prepare cell extracts, A431 cells were twice washed in phosphate buffer and incubated for 10 min on ice in the modified lysis buffer containing 50 mM Tris-HCl, pH 7.5, 0.5% Igepal CA-630, 150 mM NaCl, 1 mM EDTA, 1 mM DTT, 1 mM PMSF, 0.1 mM sodium orthovanadate and aprotinin, leupeptin and pepstatin (1 µg/mL each) as described earlier in the work. The protein content was determined by the Bradford method.
(§3) A431 cell lysates were separated in 10% SDS-PAGE under reducing conditions, transferred to a nitrocellulose membrane (GE HealthCare, Chicago, IL, USA), and processed according to a standard protocol. Akt, GLUT1, PD-L1, and CA IX antibodies were obtained from Cell Signaling Technology (Danvers, MA, USA); the antibodies against GAPDH (Cell Signaling Technology) were added to standardize loading. Goat anti-rabbit IgGs (Jackson ImmunoResearch, West Grove, PA, USA) conjugated to horseradish peroxidase were used as secondary antibodies. Signals were detected using the ECL reagent as described in Mruk and Cheng’s protocol and an ImageQuant LAS4000 system (GE HealthCare).
Background: A western blot detects proteins with antibodies after separation by electrophoresis.

The subject of a further data set is PD-L1. The data set is described as above. The note with it: hypoxia 24 h. The class given is cell-based, human. The protocol: as §1, §2, §3
A further data set concerns CA IX. The data set is described as above. The class given is cell-based, human. The following applies: hypoxia 24 h. The protocol:
as §1, §2, §3

Another data set has as its system MCF7 cells. The data set is described as follows: Antiproliferative activity, MTT test. The class given is cell-based. The following applies: Homo sapiens, MTT assay after 72 h exposure. The protocol:
A series of synthesized indoline-5-sulfonamides was tested on the MCF7 cancer cell line under normoxia and hypoxia using the MTT test.
The MDR subline K562/4 [77] (kind gift of Dr. Alexander Shtil, Blokhin N.N. National Medical Research Center of Oncology) was obtained by stepwise selection of K562 cells for survival under continuous exposure to Dox. This subline expresses the MDR1 gene and functional P-gp and is characterized by a high resistance index for Dox. […] Cells in the logarithmic phase of growth were used in the experiments. The growth inhibitory activity of compounds was assessed by the MTT test based on the metabolism of the MTT reagent (3-[4,5-dimethylthiazol-2-yl]-2,5-diphenyltetrazolium bromide) (Applichem) in living cells, with modifications as described previously in [49]. Compounds at different concentrations in 100 μL of the appropriate medium were added, and the cells were grown for 72 h. The hypoxia (1% O2) conditions were simulated in Binder multigas incubator, as described in [49]. After incubation with compounds, the medium was removed, the MTT reagent that was dissolved in the medium was added to the final concentration of 0.2 mg/mL to each well, and the incubation was performed for 2 h. Then the cell supernatants were removed, and purple formazan crystals were dissolved in 100% DMSO (350 μL per well). Culture plates were gently shaken, and the absorbance was measured at 571 nm with a reference wavelength of 630 nm on a MultiScan reader (ThermoFisher, Waltham, MA, USA). The viability of the cells was expressed as a percentage of the control. Dose-response curves were analyzed by regression analysis using sigmoid curves (Log(concentration) vs. normalized absorbance).
All results were reported as means ± SD. One-way analysis of variance was used for the analysis of data. Differences were defined as significant at p < 0.05. GraphPad Prism7 (GraphPad Software, San Diego, CA, USA) was used for the determination of the half-maximal inhibitory concentration (IC50) values.
(In general: Tetrazolium assays rely on reduction of a dye to a coloured formazan, in cell work by metabolically active cells.)

Each structure is given as a SMILES string. Where two headings read alike, the source gives them in different places. Where only a bound is given, the exact number is not on record here.

For orientation: melting point means the temperature, or range, at which the solid turns liquid. One may read the IC50 as the midpoint of a concentration-inhibition curve. Take `NS(=O)(=O)c1ccc2c(c1)CCN2C(=O)c1cccc(Cl)c1` [Compound 4f, 1-(3-Chlorobenzoyl)indoline-5-sulfonamide]: the melting point was more than 250 °C. For the same molecule, the “GLUT1 expression in A431 cells” value in the data set with GLUT1 is listed as “did not change”. Besides, in the data set on PD-L1, the “PD-L1 expression in A431 cells” value is “did not change”. In addition, the “CA IX expression in A431 cells” value with CA IX is “moderate decrease”. Moreover, the IC50 with MCF7 cells (hypoxia (1% O2), read-out: IC50 against MCF7 Cells, Hypoxia) was 12.9 ± 1.2 µM. Moreover, the IC50 in the data set on MCF7 cells (normoxia, read-out: IC50 against MCF7 Cells, Normoxia) was 24.5 ± 1.9 µM.
